# From PMC11679793, “Structure-Activity Relationship Study of Majusculamide D: Overcoming Metabolic Instability and Severe Toxicity with a Fluoro Analogue” (Marine Drugs, 2024)
# Columns and labels:
# [1] = Stability in mouse plasma assay; format: in vitro ADME; conditions: 1 μM, 37 °C, 2 h incubation
# Method: Thaw plasma at room temperature and vortex for 3–5 s. Centrifuge at 3000 rpm at 10 °C for 10 min, and carefully transfer the supernatant to a new Eppendorf tube. Preincubate the plasma at 37 °C for 10 min. Prepare a series of test substances by adding 3 μL of the compound (100 μM) to 297 μL of plasma to achieve a final concentration of 1 μM, ensuring that the DMSO concentration in plasma is 1%. Propantheline bromide is used as a positive control. Incubate the mixture at 37 °C, and at specified time points (0, 1, 2, 4, and 24 h), take 50 μL of the plasma sample. To terminate the reaction, add 250 μL of acetonitrile (containing an internal standard), vortex thoroughly, and centrifuge at 16,000 rcf (4 °C) for 10 min. Collect 130 μL of the supernatant and dilute with 70 μL of pure water for LC-MS/MS analysis. The concentration of the test substances in plasma samples was determined using LC-MS/MS. The stability of the test substance in plasma was evaluated by measuring the remaining percentage of the compound in the plasma over time.
# [2] = Serum biochemical analysis and H&E histology of liver and kidney; format: in vivo, mice; conditions: 5 mg/kg every other day, 14 days
# Method: In the biochemical and histological assays, 1n (5 mg/kg) and 1a (5 mg/kg) were administered to mice every other day, with the control group receiving an equivalent dose of saline. Following 14 days, mouse serum was collected for biochemical analysis, and organs were fixed for histological examination. […] In comparison, the liver tissues of the 1n-treated and control groups were normal.
# Mice were euthanized, and liver and kidney tissues were collected and fixed in 10% neutral-buffered formalin for 48 h. The fixed tissues were processed for paraffin embedding, including dehydration in a graded ethanol series, clearing with xylene, and infiltration with molten paraffin wax. Paraffin blocks were sectioned into 4 μm slices using a rotary microtome, and the sections were mounted onto glass slides. The slides were dried at 60 °C for 4 h to ensure proper tissue adhesion. Following deparaffinization and rehydration, staining was performed according to the manufacturer’s instructions for the H&E staining kit (Solarbio, China). The sections were immersed in a hematoxylin solution for 3 min to stain the nuclei and then rinsed under running tap water for 1 minute to remove excess stain. Differentiation was achieved by briefly immersing the slides in a 1% hydrochloric acid-ethanol solution, followed by neutralization in 0.6% ammonia water until the nuclei appeared blue. Eosin staining was applied for 30 s to stain cytoplasmic and extracellular components, imparting a pink coloration. The slides were rinsed under running tap water for 30 s to remove excess eosin. Finally, the sections were dehydrated through a graded ethanol series, cleared with xylene, and coverslipped with a neutral resin mounting medium to preserve the stained tissues for microscopic examination.
# [3] = tested on: β-catenin, Claudin-1, E-cadherin, Fibronectin, Snail, TCF8/ZEB1, Vimentin in PANC-1 cells and MIA PaCa-2 cells; test: Western blot assay of Wnt/EMT biomarkers; format: cell-based; conditions: PANC-1 and MIA PaCa-2 cells
# Text: It is well established that the metastasis of tumors was accompanied by the change of several special proteins. β-catenin is an intracellular signaling molecule primarily involved in the Wnt signaling pathway and regulates cell proliferation and differentiation. The abnormal activation of β-catenin is associated with tumor development and increased invasiveness. Claudin-1 belongs to the tight junction protein family, which maintains the barrier function between cells and is correlated with some cancers’ metastatic ability. E-cadherin is an intercellular adhesion molecule, and its decreased expression is common in the phenotype transition process of cancer cells, such as epithelial-mesenchymal transition (EMT), which is a key step in cancer metastasis. Fibronectin is an extracellular matrix protein involved in cell adhesion and migration, and its expression is often positively associated with cancer’s metastatic ability. Snail and TCF8/ZEB1 both are transcription factors that can inhibit the expression of E-cadherin and promote the EMT process. Vimentin is a marker protein of mesenchymal cells, and its expression increases during EMT, further contribute to the process of metastasis by supporting the structural changes needed for cell migration and invasion. […]
# Cells were lysed in RIPA lysis buffer (Solarbio, China). The protein concentration was determined using the BCA assay. […]
structure (smiles),measurement,setting,value
"CCCCC(C)CC(C)C(=O)N(C)C(Cc1ccc(OC)cc1)C(=O)NC(C(=O)N(C)C(C(=O)N1CC(O)CC1C(=O)N1C(=O)C=CC1C)C(C)C)C(C)OC(C)=O (stereo not drawn) [Compound 1a, Majusculamide D]",remaining percentage in mouse plasma after 2 h,[1],54.7%
same,kidney tissue H&E histology,[2],no significant pathological differences
same,liver tissue H&E histology,[2],signs of hepatocyte necrosis and disruption of the hepatic cord structure
same,serum ALT and AST levels compared to the control group,[2]; n = 3,substantially elevated
same,"expression levels of β-catenin, Fibronectin, Snail, TCF8/ZEB1 and Vimentin",[3]; increasing concentrations,decreased
same,expression levels of Claudin-1 and E-cadherin,[3]; rising concentrations,increased
